In patent publication US6652890B2, “Tea catechins as cancer specific proliferation inhibitors” (Purdue Research Foundation, priority 1999, dated 2003):
pEC50: −log10 of the molar value. “Also recorded” adds a separate entry of the source.

Experiments:
[1] = target: T1, NADH oxidase of plasma membranes from MCF-10A human mammary epithelial (non-cancer) cells (Homo sapiens, UniProt Q8TC92); assay: NADH oxidase activity of isolated plasma membrane vesicles; type: biochemical; details: EGCg dose-response, FIG. 2A
T1 construct: endogenous in cells; host or cells: MCF-10A plasma membrane vesicles
T1 sequence (Q8TC92 1-643): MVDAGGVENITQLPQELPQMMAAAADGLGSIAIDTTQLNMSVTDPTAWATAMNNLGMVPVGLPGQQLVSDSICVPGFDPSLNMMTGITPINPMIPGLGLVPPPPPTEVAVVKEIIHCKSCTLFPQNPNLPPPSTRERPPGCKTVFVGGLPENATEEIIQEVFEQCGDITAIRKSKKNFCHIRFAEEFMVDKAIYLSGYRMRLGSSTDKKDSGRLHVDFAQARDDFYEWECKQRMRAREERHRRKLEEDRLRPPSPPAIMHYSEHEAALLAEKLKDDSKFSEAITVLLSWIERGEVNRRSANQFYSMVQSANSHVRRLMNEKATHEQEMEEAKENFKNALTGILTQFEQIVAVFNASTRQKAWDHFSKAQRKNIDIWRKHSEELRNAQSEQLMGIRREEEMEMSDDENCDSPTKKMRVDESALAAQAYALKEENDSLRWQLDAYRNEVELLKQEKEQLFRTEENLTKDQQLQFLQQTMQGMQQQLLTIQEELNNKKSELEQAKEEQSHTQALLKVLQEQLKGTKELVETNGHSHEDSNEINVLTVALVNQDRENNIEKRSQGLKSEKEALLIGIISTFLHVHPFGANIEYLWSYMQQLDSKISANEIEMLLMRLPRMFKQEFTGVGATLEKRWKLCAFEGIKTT
Description: Cultured cells were collected by centrifugation for 6-15 min at 175-1000×g. The cell pellets were resuspended in 0.2 mM EDTA in 1 mM NaHCO3 in an approximate ratio of 1 ml per 10^8 cells and incubated on ice for 10-30 min to swell the cells. […] To estimate breakage, the cells were monitored by light microscopy before and after homogenization. At least 90% cell breakage without breakage of nuclei was achieved routinely.
The homogenates were centrifuged for 10 min at 175×g to remove unbroken cells and nuclei and the supernatant was centrifuged a second time at 1.4×10^6 g·min (e.g., 1 h at 23,500×g) to prepare a plasma membrane-enriched microsome fraction. The supernatant was discarded and the pellets were resuspended in 0.2 M potassium phosphate buffer in a ratio of ˜1 ml per pellet from 5×10^8 cells. […] The purity of the plasma membrane was determined to be >90% by electron microscope morphometry. […]
NADH oxidase activity was determined as the disappearance of NADH measured at 340 nm in a reaction mixture containing 25 mM Tris-Mes buffer (pH 7.2), 1 mM KCN to inhibit low levels of mitochondrial oxidase activity, and […] at 37° C. with stirring. Activity was measured using a Hitachi U3210 or SLM Aminco DW2000 spectrophotometer with continuous recording over two intervals of 5 min each. […]

[2] = test system: BT-20 human mammary adenocarcinoma cells; assay: Effect on intact cells in culture (growth, morphology, DAPI); type: cell-based
Description: BT-20 human breast adenocarcinoma cells were cultured in Eagle's minimal essential medium nonessential amino acids and Earle's balanced salts supplement with 10% fetal bovine serum. Media were renewed as for MCF-10A cells. […] The coverslips were rinsed and the cells fixed in methanol followed by addition of fluorescent dye 4′,6-diamidino-2-phenylindole (DAPI) as described (Wolvetang et al., 1994, FEBS Lett. 339:40-44). Cells were observed and photographed at a primary magnification of 400×.

tNOX = assay: Inhibition of tNOX activity of sera pooled from patients with cancer; type: biochemical, human
Description: NADH oxidase activity was determined as the disappearance of NADH measured at 340 nm in a reaction mixture containing 25 mM Tris-Mes buffer (pH 7.2), 1 mM KCN to inhibit low levels of mitochondrial oxidase activity, and […] at 37° C. with stirring. Activity was measured using a Hitachi U3210 or SLM Aminco DW2000 spectrophotometer with continuous recording over two intervals of 5 min each. A millimolar extinction coefficient of 6.22 was used to determine specific activity.
Authentic EGCg (Sigma) was used as the standard.
All chemicals were from Sigma (St. Louis, Mo.) unless otherwise specified. EGF was from mouse, culture grade, from Upstate Biotechnology Inc. (Lake Placid, N.Y.). Tea infusions were prepared by sequential steeping of ca. 2-g bags of tea (Lipton) in 10 ml of water for 10 min each. At the end of the infusion, bags were pressed to remove liquid.

[3] = 10^−6 M EGCg twice daily for 96 h

## (−) - epigallocatechin gallate [EGCg]
[1]
  Effect on NADH oxidase activity: without effect
[2]; 10 μM EGCg added at t=0, 96 h, FIG. 4
  Fate of treated cells: did not recover and died; also recorded: stopped growing and died
[2]; [3]
  Reduction of cell diameter: about 25%
  Reduction of cell number: about 25%
  Reduction of cell volume: 50%
[2]; 10^−6 M EGCg, 72 h
  Response of the cell line: no response
[2]; 10 or 50 μM EGCg, 96 h, FIG. 5
  Condensed chromatin (DAPI staining): characteristic of apoptosis
tNOX
  pEC50: 5.70
tNOX; EGCg content at the EC50
  EGCg: 1 µg/mL
